Test results taken from patent US9855265B2, “Methods for treating cancer with TrkA receptor tyrosine kinase antagonists” (VM Oncology LLC, priority 2014, dated 2018).

Assays:
Assay type in all cases: biochemical
Settings in all cases: duplicate
[1] = biological target: T1, ALK5/TGFB-R1 (Homo sapiens, UniProt P36897); test: radiometric kinase assay, other kinases: ALK5/TGFB-R1
T1 construct: other kinases of recombinant human cytoplasmic domain
Experimental: (§1) Compound inhibition in a radiometric based mixed micelle assay: In a final reaction volume of 25 μL, TrkA (h) ([…]) is incubated with the kinase reaction buffer (20 mM HEPES (pH 7.5), 10 mM MgCl2, 1 mM EGTA, 0.02% Brij 35, 0.02 mg/ml BSA, 0.1 mM Na3VO4, 2 mM DTT, 1% DMSO), 0.2 mg/ml substrate PolyEY(4:1) and […], and [^33P-ATP](specific activity approx. 500 cpm/pmol, concentration as required). The reaction is initiated by the addition of the MgATP mix. After incubation for at least 40 minutes at room temperature, the reaction is stopped by the addition of 5 μL of a 3% phosphoric acid solution. 10 μL of the reaction is then spotted onto a P30 filtermat and washed three times for 5 minutes in 75 mM phosphoric acid and once in methanol prior to drying and scintillation counting. TrkA: Recombinant Human Cytoplasmic Domain (amino acids 441-796), Histidine-tagged, expressed in insect cells. Activated in vitro via auto-phosphorylation. Mw=42.8 kDa. Substrates for kinases: poly(EY) for TRKA; poly(EY)(4:1) with 2 mM MnCl2, average Mw=16 kDa Standard conditions (unless otherwise specified): 30 nM TRKA, 0.2 mg/ml poly(EY)+2 mM MnCl2, and 10 μM ([γ-^33P]) ATP. Using the similar assay condition with other kinases of recombinant human cytoplasmic domain, the activities of other kinases could be also measured.

[2] = biological target: BTK (Homo sapiens, UniProt Q06187); test: radiometric kinase assay, other kinases: BTK
Chain of BTK (Q06187 whole entry): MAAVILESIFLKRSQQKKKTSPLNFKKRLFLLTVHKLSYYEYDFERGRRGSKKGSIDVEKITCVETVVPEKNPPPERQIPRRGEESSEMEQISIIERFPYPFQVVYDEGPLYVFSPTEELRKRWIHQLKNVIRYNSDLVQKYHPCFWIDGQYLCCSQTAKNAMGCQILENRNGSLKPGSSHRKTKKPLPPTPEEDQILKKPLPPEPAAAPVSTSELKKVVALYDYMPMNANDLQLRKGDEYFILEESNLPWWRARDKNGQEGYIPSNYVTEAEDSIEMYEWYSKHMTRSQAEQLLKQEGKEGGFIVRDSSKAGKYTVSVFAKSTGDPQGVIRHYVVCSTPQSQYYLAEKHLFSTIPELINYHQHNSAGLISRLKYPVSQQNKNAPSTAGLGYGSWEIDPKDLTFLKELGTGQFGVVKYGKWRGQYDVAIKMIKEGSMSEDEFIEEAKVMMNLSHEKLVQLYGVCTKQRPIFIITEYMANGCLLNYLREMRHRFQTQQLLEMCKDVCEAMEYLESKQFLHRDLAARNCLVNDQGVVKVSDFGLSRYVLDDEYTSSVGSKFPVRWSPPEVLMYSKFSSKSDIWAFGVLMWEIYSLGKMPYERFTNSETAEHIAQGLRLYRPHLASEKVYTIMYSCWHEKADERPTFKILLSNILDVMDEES
Experimental: as §1

[3] = biological target: PKCalpha (Homo sapiens, UniProt P17252); test: radiometric kinase assay, other kinases: PKCalpha
Experimental: as §1

[4] = biological target: PKCeta (Homo sapiens, UniProt P24723); test: radiometric kinase assay, other kinases: PKCeta
Chain of PKCeta (P24723 whole entry): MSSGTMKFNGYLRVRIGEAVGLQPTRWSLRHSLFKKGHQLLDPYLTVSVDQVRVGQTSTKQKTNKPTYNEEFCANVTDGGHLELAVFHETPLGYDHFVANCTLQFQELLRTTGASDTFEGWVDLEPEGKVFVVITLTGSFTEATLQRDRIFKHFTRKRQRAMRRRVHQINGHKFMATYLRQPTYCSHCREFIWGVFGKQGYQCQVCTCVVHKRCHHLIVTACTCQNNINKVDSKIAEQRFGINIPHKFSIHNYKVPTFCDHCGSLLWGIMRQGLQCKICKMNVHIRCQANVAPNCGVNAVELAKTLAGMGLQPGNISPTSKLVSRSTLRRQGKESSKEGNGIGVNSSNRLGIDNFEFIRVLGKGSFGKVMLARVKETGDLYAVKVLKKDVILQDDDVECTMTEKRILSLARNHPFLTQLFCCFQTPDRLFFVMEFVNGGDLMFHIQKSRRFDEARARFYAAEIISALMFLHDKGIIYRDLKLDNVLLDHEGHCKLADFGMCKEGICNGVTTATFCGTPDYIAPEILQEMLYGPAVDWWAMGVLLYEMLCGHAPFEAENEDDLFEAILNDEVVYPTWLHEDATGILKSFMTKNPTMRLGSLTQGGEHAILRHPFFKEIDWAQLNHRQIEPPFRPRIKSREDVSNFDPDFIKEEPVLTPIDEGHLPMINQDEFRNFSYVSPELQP
Experimental: as §1

[5] = biological target: PKG1a (Homo sapiens, UniProt Q13976); test: radiometric kinase assay, other kinases: PKG1a
Chain of PKG1a (Q13976 whole entry): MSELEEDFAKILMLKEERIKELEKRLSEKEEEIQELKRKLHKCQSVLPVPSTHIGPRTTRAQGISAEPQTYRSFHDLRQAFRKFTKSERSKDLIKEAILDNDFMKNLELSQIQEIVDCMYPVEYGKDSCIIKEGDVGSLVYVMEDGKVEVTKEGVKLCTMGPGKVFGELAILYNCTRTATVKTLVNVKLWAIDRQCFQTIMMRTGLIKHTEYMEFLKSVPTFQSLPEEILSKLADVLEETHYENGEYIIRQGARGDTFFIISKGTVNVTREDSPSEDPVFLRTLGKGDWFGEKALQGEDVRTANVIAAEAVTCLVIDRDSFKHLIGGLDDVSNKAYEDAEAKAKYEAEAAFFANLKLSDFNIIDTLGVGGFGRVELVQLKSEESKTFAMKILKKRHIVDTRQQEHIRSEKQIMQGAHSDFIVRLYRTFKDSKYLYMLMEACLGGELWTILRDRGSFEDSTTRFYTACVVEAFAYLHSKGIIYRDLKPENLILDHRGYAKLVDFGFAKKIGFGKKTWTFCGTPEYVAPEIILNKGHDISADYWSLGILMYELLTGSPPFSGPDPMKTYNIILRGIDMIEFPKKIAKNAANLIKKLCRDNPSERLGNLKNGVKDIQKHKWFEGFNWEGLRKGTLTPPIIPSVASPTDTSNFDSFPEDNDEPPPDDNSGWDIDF
Experimental: as §1

[6] = biological target: T2, VEGFR3/FLT4 (Homo sapiens, UniProt P35916); test: radiometric kinase assay, other kinases: VEGFR3/FLT4
T2 construct: other kinases of recombinant human cytoplasmic domain
T2 sequence (P35916 797-1363 limits assumed): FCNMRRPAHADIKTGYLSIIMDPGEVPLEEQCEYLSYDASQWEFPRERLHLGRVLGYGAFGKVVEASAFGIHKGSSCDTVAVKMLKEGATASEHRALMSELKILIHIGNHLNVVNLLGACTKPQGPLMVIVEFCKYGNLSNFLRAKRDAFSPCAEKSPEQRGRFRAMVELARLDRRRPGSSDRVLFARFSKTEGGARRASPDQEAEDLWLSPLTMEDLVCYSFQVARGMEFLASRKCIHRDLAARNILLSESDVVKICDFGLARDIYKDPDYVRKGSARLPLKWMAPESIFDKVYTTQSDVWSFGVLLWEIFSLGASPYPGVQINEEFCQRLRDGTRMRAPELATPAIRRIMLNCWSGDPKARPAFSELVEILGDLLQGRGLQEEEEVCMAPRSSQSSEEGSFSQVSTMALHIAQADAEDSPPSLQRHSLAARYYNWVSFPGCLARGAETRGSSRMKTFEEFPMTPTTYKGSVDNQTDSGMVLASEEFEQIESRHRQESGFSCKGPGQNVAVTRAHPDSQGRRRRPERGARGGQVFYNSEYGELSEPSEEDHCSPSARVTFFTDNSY
Experimental: as §1

T1 sequence (P36897 148-503 limits assumed): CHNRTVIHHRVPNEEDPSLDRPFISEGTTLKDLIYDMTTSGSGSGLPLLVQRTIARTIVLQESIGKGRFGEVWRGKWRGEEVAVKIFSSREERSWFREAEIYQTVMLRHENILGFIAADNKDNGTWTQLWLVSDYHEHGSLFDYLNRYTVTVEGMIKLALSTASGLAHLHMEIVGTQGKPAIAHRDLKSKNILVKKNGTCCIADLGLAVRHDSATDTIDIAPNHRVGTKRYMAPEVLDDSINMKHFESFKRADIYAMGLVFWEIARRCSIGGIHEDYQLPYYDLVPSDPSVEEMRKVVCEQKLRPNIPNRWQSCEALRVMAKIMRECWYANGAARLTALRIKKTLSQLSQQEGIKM

IC50 [1]: > 10 µM
IC50 [2]: > 10 µM
IC50 [3]: > 10 µM
IC50 [4]: > 10 µM
IC50 [5]: > 10 µM
IC50 [6]: > 10 µM
SMILES: Nc1c(N2CCN(C3CCCCC3)CC2)cc(Nc2ccc(C(=O)O)cc2)c2c1C(=O)c1ccccc1C2=O [Compound 12, 4-{[4-amino-3-(4-cyclohexylpiperazin-1-yl)-9,10-dioxo-9,10-dihydroanthracen-1-yl]amino}benzoic acid]
